Results taken from paper PMC11882793 (Nature Communications, 2025).
pKd: −log10 of the molar value. No end group written: not given here. *: point of attachment. FITC = O=C1OC2(c3ccc(O)cc3Oc3cc(O)ccc32)c2ccc(NC(=S)*)cc21

Experiments:
[1] = biological target: FITC-labeled peptide derived from the wild-type C-terminal sequence of SciP (C. crescentus); experiment: fluorescence polarisation
[2] = biological target: T1, NTD of CcLon (aa. 1-206) (Caulobacter vibrioides, UniProt P0CAW0); experiment: Fluorescence polarization, FITC-labeled degron peptides vs NTD; assay type: binding, C. crescentus; conditions: FP assay
T1 sequence (P0CAW0 1-206): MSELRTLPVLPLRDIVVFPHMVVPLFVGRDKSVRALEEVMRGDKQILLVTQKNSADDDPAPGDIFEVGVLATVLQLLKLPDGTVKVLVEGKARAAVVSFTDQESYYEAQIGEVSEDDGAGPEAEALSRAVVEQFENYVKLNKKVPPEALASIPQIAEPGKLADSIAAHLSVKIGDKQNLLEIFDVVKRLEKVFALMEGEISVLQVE

[3] = tested on: LarA-NTD complex; experiment: Fluorescence polarization, FITC-labeled degron peptides vs LarA-NTD complex; assay type: binding, C. crescentus; conditions: FP assay

pKd [1] | Substance | FP binding to NTD (in words) [2] | FP binding to LarA-NTD complex (in words) [3]
3.38 | LarA-NTD complex (from UniProt P0CAW0 1-206) | – | –
– | {FITC}-HEAAPASAH [pep-LarA-mut] | failed to bind | failed to bind
– | {FITC}-HELAPVSVH [pep-LarA-amidated] | no binding was observed | comparable to that of pep-LarA
– | {FITC}-QSADRHGAAGARTTRAQQYR [pep-SciP-mut] | failed to bind | failed to bind
